Read-outs that look alike come from different tables or passages of the source. One block for each compound: values may come before it.
Assays:
[1] = Bioavailability of peptides after vaginal administration to sheep, relative to intravenous injection; details: female, in vivo, sheep
Procedure: (§1) First, a peptide that undergoes receptor-mediated transport across the vaginal epithelium was identified by studying the permeation of peptides of varying molecular weight in a sheep model. Peptides were delivered vaginally to sheep in 5 ml of aqueous or methocel solutions with typical peptide concentrations of 10-40 μg/ml. A group of 18 intact ewes were utilized for these experiments. For each study, sheep were randomly assigned to a treatment group. In GnRH studies where each animal received all possible treatment combinations, each animal was assigned to an initial treatment group at random and subsequently randomly to each of the remaining treatment groups. A minimum of 5 days (typically 10 or more days) was allowed between experiments on a given animal, to provide sufficient time for complete recovery of pituitary responsiveness to the highest doses of the GnRH agonist used A 16G 150 mm jugular catheter (Abbocath-T, Abbott Laboratories, Chicago, Ill.) was inserted and blood samples collected at 0, 30, 60, 90, 120, 180, 240, 360, 480 and 1440 min. after treatment. Luteinizing hormone (LH) levels were determined.
LHRH analog was placed in methyl cellulose solutions (“methocels”) of varying apparent viscosity. […] First, 200 μg of leuprolide acetate in 5 ml of aqueous solutions with melhocel weight concentrations varying between 0% and 3.0% were vaginally administered.
The enhanced bioavailability of LHRH also coincides with a longer-term release into the systemic circulation at the optimal methocel concentrations. […] To test this hypothesis, the efficacy of a second, physically cross-linked hydrogel that was believed would not enhance endocytosis, but whose apparent viscosity (in the range of hydrogel concentrations 0.0-5.5%) was similar to that of the methocels (in the range 0.0-3.0%) was examined.

serum cortisol = assay: Serum cortisol response to iv injection and vaginal administration of vasopressin; type: in vivo, sheep
Procedure: FIGS. 1a and 1b are graphs showing serum responses to iv injection and vacinal administration of vasopressin and leuprolide acetate. […] Vasopressin was injected intravenously ([…]) through a jugular catheter. The peptide was delivered vaginally in 5 ml of aqueous solution (200 g does). Standard errors are based on n=6. […] LHRH analog was injected intravenously ([…]) into through a jugular catheter. The peptide was delivered vaginally in 5 ml of aqueous solution (200 g dose). Standard errors are based on n=6.
as §1
To determine whether membrane damage might explain the results shown in FIG. 2, vasopressin was vaginally administered in methocel solutions of 1.5 and 1.75%.

luteinizing hormone (LH) [2] = assay: Daily vaginal DES in progesterone-primed ovariectomized ewes: basal LH and pituitary responsiveness; type: in vivo, sheep
Procedure: The objective of this study was to determine if daily vaginal administration of DES in progesterone-primed ewes would cause a reduction in basal LH secretion and loss of pituitary responsiveness of GnRH. Six ovariectomized ewes were used for the study. Vaginal CIDR devices containing progesterone were inserted. Twenty-four hours later, ewes were dosed daily with 200 μg of DES (GnRH agonist) in 5 mL of gel. Each day, blood samples were collected at 0 and 120 minutes post-treatment. These times were selected in order to evaluate changes in basal secretion of LH (time 0) and the peak LH response following GnRH administration (time 120).

luteinizing hormone (LH) [3] = assay: Chronic daily vaginal dosing of DES in gel to suppress LH secretion, ovariectomized sheep without steroids; type: in vivo; details: no steroid
Procedure: The objective was to determine if chronic vaginal dosing with 200 μg of deslorelin (“DES”) in gel would be able to suppress secretion of LH. […] doses of DES will result in the down-regulation of the anterior pituitary gland in sheep. Ovariectomized sheep were used for the study, since they secrete high levels of LH in the-absence of ovarian steroids. The sheep were dosed daily with DES in 5 mL of gel, or gel only for 17 days. A single blood sample was collected by jugular venipuncture. Plasma was collected and assayed for LH.

luteinizing hormone (LH) [4] = assay: CIDR device control study: LH release after vaginal DES; type: in vivo, sheep
Procedure: Another study provided information about the role of the silastic CIDR device itself in the delivery process. The study was based on concern that the CIDR might be damaging the vaginal mucosa, allowing for GnRH transport by a non-selective mechanism. CIDR devices were inserted into six ewes. Five days later, all ewes were treated vaginally with DES. […] After the initial dosing, three ewes were treated with DES and three with gel alone every day for 18 days. At the end of the 18-day treatment period, all ewes were again treated with DES in gel. […] Consequently, by the time the second DES administration was given, the CIDR devices had been in place for approximately 24 days. The ewes therefore were no longer receiving adequate amounts of progesterone locally to maintain the vaginal transport system.

luteinizing hormone (LH) [5] = assay: LH release after DES in gel in ewes given systemic depot progesterone and ear implants of synthetic progestogen; type: in vivo, sheep
Procedure: An attempt was made to treat ewes with progesterone using the systemic administration of a depot form of progesterone and ear implants of a synthetic progestogen. Pituitary release of LH was poor following the vaginal administration of DES in gel. When LH release in these animals was not observed, the gel from the same preparations used vaginally was injected subcutaneously. LH release was then obtained, confirming that the DES/gel preparations contained biologically active material. Given the consistent responses obtained in earlier experiments and those obtained more recently using the CIDR delivery system, it was concluded that the progesterone (generally) should be applied directly to the vagina in order to achieve sufficient local concentrations. Given that luteal phase sheep also respond well, systemic administration of greater amounts of progesterone than used here, in formulations that will maintain consistently high concentrations in the blood, should also work.

luteinizing hormone (LH) [6] = type: in vivo, sheep
Procedure: Ewes (n=12) were treated with progesterone using a vaginal CIDR device. In addition, six sheep received a 15 mm silastic implant of estradiol. Five days later, all sheep were treated vaginally with 200 μg of DES in gel. Blood samples were taken every 30 minutes for 2 hours following treatment and then every 60 minutes for an additional four hours.

Compound: NC(=O)CC[C@@H]1NC(=O)[C@H](Cc2ccccc2)NC(=O)[C@H](Cc2ccc(O)cc2)NC(=O)[C@@H](N)CSSC[C@@H](C(=O)N2CCC[C@H]2C(=O)N[C@@H](CCCN=C(N)N)C(=O)NCC(N)=O)NC(=O)[C@H](CC(N)=O)NC1=O [vasopressin]
bioavailability ([1]; 200 μg, vaginal administration in an aqueous buffer, leuprolide value based on biological response, read-out: bioavailability): < 0.1%
systemic cortisol levels (serum cortisol; intravenous injection, within the first hour following treatment): high systemic cortisol levels
changes in concentrations of cortisol (serum cortisol; vaginal administration in methocel solutions of 1.5 and 1.75%): no detectable changes
change in systemic cortisol levels (serum cortisol; vaginal administration, aqueous solution (FIG. 1a)): no detectable change

lag time between vaginal administration and transport of sufficient amounts into the blood to cause LH release (luteinizing hormone (LH) [6]; in vivo): 70 to 80 min
Compound: CCNC(=O)[C@@H]1CCCN1C(=O)[C@H](CCCN=C(N)N)NC(=O)[C@H](CC(C)C)NC(=O)[C@@H](Cc1c[nH]c2ccccc12)NC(=O)[C@H](Cc1ccc(O)cc1)NC(=O)[C@H](CO)NC(=O)[C@H](Cc1c[nH]c2ccccc12)NC(=O)[C@H](Cc1cnc[nH]1)NC(=O)[C@@H]1CCC(=O)N1 [DES, deslorelin]
ewes in which the change in LH between 0 and 120 minutes was greatest on the first day of administration (luteinizing hormone (LH) [2]; 200 μg daily vaginally in 5 mL gel, progesterone-primed ovariectomized ewes): 3 of 6
ewes that transport GnRH (luteinizing hormone (LH) [2]; after four days of exposure to progesterone): ~100%
ewes with significant transport (luteinizing hormone (LH) [2]; after only 24 hours of exposure to progesterone): Approximately 50%
basal LH (luteinizing hormone (LH) [2]; progesterone-primed ewes, daily treatment, time 0 sample (FIG. 8)): significant decreases
pituitary responsiveness with continued daily treatment (luteinizing hormone (LH) [2]; progesterone-primed ewes, first-treatment LH differential set to 100% (FIG. 7)): significantly reduced
time over which the change in LH secretion continued to increase after initiation of treatment (luteinizing hormone (LH) [2]; the two remaining animals of six): 5 to 7 days
pituitary responsiveness once the maximum response was achieved (luteinizing hormone (LH) [2]; the two remaining animals of six (Ewe 9)): rapidly declined
average LH concentrations, DES versus control (gel only) group (luteinizing hormone (LH) [3]; 200 μg daily vaginally in 5 mL gel for 17 days): no differences
LH secretion (luteinizing hormone (LH) [3]; between days 6 and 12 of daily vaginal dosing): slightly suppressed
ewes that displayed a robust release of LH (luteinizing hormone (LH) [4]; DES in gel at end of 18-day period, CIDR in place approximately 24 days): none
ewes with a robust release of LH (luteinizing hormone (LH) [4]; vaginal treatment five days after CIDR insertion): Five of the six
LH release (luteinizing hormone (LH) [5]; same gel preparation injected subcutaneously): obtained
pituitary release of LH (luteinizing hormone (LH) [5]; vaginal administration in gel, systemic depot progesterone and progestogen ear implants): poor
ewes that responded with a robust discharge of LH (luteinizing hormone (LH) [6]; 200 μg vaginally in gel, 5 days after progesterone CIDR with or without estradiol implant, n=12): All ewes
time of peak LH (luteinizing hormone (LH) [6]; ewes treated only with progesterone): 120 min
time of peak LH (luteinizing hormone (LH) [6]; ewes treated with progesterone and estradiol): 240 min

bioavailability [1]: < 0.1%
Compound: CC(C)C[C@H](NC(=O)[C@H](CCCCN)NC(=O)CNC(=O)[C@H](CC(C)C)NC(=O)[C@@H](NC(=O)[C@@H]1CSSC[C@H](N)C(=O)N[C@@H](CO)C(=O)N[C@@H](CC(N)=O)C(=O)N[C@@H](CC(C)C)C(=O)N[C@@H](CO)C(=O)N[C@@H]([C@@H](C)O)C(=O)N1)C(C)C)C(=O)N[C@@H](CO)C(=O)N[C@@H](CCC(N)=O)C(=O)N[C@@H](CCC(=O)O)C(=O)N[C@@H](CC(C)C)C(=O)N[C@@H](Cc1c[nH]cn1)C(=O)N[C@@H](CCCCN)C(=O)N[C@@H](CC(C)C)C(=O)N[C@@H](CCC(N)=O)C(=O)N[C@H](C(=O)N[C@@H](Cc1ccc(O)cc1)C(=O)N1CCC[C@H]1C(=O)N[C@@H](CCCNC(=N)N)C(=O)N[C@H](C(=O)N[C@@H](CC(N)=O)C(=O)N[C@H](C(=O)NCC(=O)N[C@@H](CO)C(=O)NCC(=O)N[C@H](C(=O)N1CCC[C@H]1C(N)=O)[C@@H](C)O)[C@@H](C)O)[C@@H](C)O)[C@@H](C)O [salmon calcitonin]

— patent USRE42072E1, “Compositions and methods for enhancing receptor-mediated cellular internalization” (The Penn State Research Foundation, priority 1996, dated 2011)
